Experiment [1] addresses T1, recombinant human arginase 1 (Homo sapiens, UniProt P05089).
T1 sequence (P05089 1-322): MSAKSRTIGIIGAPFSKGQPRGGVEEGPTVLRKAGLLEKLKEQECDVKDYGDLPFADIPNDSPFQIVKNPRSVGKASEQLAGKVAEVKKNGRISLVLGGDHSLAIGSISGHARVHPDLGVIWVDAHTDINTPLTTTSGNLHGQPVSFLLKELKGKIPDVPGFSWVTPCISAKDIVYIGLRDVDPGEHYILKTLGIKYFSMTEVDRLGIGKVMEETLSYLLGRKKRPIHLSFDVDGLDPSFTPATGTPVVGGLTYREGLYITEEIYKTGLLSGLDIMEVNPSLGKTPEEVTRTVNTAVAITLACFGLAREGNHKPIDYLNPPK
The experiment can be described thus: Arginase 1 activity assay, kinetics of ARG conversion to ORN. In kind it is biochemical. The conditions noted are these: for Vmax (nmol·min^−1·mg^−1) ± SE / Km: conversion of ARG to ORN.
Protocol: Incubation mixtures contained HEK293T cell lysate expressing recombinant human arginase 1 (0.05 mg/mL) or arginase 2 (0.1 mg/mL), phosphate buffer (0.05 M, pH 7.4) and ARG (0 to 15 mM).
(§1) Following a 5-min pre-equilibration period reactions were initiated by the addition of the cell lysate solution in 0.05 M phosphate buffer to a pre-equilibrated aqueous solution of the substrate (ARG).
(§2) The samples were vortex mixed (20 sec) and cooled in an ice/water bath for 10 min prior to centrifugation (5 min, 18,000 × g, room temperature) to precipitate the proteins. An aliquot of the supernatant layer was diluted with a 7:3 mobile phase A/mobile phase B solution into glass UPLC vial inserts.
Kinetic data are the mean of three singlicate experiments.

For experiment [2], the target named is T2, recombinant human arginase 2 (Homo sapiens, UniProt P78540).
T2 sequence (P78540 23-354): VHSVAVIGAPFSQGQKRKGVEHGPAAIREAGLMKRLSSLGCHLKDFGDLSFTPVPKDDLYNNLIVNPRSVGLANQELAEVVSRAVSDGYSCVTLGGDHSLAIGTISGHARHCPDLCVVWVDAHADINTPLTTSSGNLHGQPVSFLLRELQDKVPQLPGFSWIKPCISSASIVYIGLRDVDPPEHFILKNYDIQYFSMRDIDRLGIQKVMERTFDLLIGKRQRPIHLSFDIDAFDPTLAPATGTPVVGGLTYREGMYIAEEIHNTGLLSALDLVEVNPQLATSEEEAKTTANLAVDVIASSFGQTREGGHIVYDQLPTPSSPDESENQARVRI
The experiment can be described thus: Arginase 2 activity assay, kinetics of ARG conversion to ORN. Type of experiment: biochemical.

Experiment [3] relates to arginase 2. The conditions noted are these: cited from earlier work.
Experiment [4] deals with arginase 1. The settings on record: arginase 1; range previously reported; cited from earlier work.
Experiment [5] has as its target T2, recombinant human arginase 2. As to the kind of experiment: Arginase 2 inhibition, UPLC-MS measurement of ARG to ORN conversion in HEK293T cell lysate.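 As to all read-outs here: HEK293T lysate carrying arginase 2 at 0.1 mg/mL in 0.05 M phosphate buffer pH 7.4, inhibitor preincubated with enzyme 5 min before ARG addition started the reaction.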 The settings on record: for remaining activity at 1 µM / remaining activity at 10 µM / remaining activity at 100 µM / remaining activity at 1000 µM / remaining activity at 10000 µM: read-out: % of control activity at the corresponding [Inhibitor] ± SE, arginase 2; for remaining activity at 1 µM / remaining activity at 10 µM / remaining activity at 100 µM / remaining activity at 1000 µM / remaining activity at 10000 µM / % of control activity at the corresponding [Inhibitor] ± SE: mean of two experiments; for remaining activity at 10000 µM: inhibitor 10,000 µM; for inhibition at 1000 µM: inhibitor 1 mM; for inhibition at 10000 µM: inhibitor 10 mM.
Protocol: as §1, §2
(§3) Incubation mixtures comprised of HEK293T cell lysate expressing arginase 1 (0.05 mg/mL) or arginase 2 (0.1 mg/mL), phosphate buffer (0.05 M, pH 7.4), inhibitor (0, 0.1, 1, 10, 100, 1000 or 10000 μM) and ARG (0.1, 2 or 3 mM). Following a 5-min pre-incubation of the potential inhibitor with arginase 1 or arginase 2, reactions were initiated by the addition of a pre-equilibrated solution of the substrate ARG.
Sample were diluted 3:17 in mobile phase solution prior injection.

In experiment [6] the target is T1, recombinant human arginase 1. The experiment can be described thus: Arginase 1 inhibition, UPLC-MS measurement of ARG to ORN conversion in HEK293T cell lysate.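 As to all read-outs here: arginase 1–expressing HEK293T lysate at 0.05 mg/mL in pH 7.4 phosphate buffer, inhibitor preincubated 5 min with enzyme, then reaction started by adding ARG.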 The conditions noted are these: for remaining activity at 1 µM / remaining activity at 10 µM / remaining activity at 100 µM / remaining activity at 1000 µM / remaining activity at 10000 µM: read-out: % of control activity at the corresponding [Inhibitor] ± SE, arginase 1; for remaining activity at 1 µM / remaining activity at 10 µM / remaining activity at 100 µM / remaining activity at 1000 µM / remaining activity at 10000 µM / % of control activity at the corresponding [Inhibitor] ± SE: mean of two experiments; for remaining activity at 10000 µM: inhibitor 10,000 µM; for inhibition at 1000 µM: inhibitor 1 mM; for inhibition at 10000 µM: inhibitor 10 mM.
Protocol: as §1, §2, §3
Ki values were derived from fitting the competitive inhibition equation to experimental data. Ki data are the mean of three singlicate experiments.

[7] abbreviates: read-out: inhibition of arginase 2, ARG 100 µM.
Where [8] appears, read: read-out: inhibition of arginase 2, ARG 2 mM.
The mark [9] stands for this setting: read-out: inhibition of arginase 1 activity, ARG 100 µM (physiological).
[10] abbreviates: read-out: inhibition of arginase 1 activity, ARG 3 mM (Km).

The values below come from publication PMC5829263, “Homoarginine and inhibition of human arginase activity: kinetic characterization and biological relevance” (Scientific Reports, 2018).

Structures are written as SMILES. Where “and” joins values, the source holds several entries; their conditions need not be identical. Identical values can stand only once. Counter-ions that a name gives are not always drawn. Like-named read-outs stand apart in the source and are kept apart here.

One may read the Km as the concentration of substrate that gives half-maximal velocity. Turning to `N=C(N)NCCC[C@H](N)C(=O)O` [ARG, arginine], the “Vmax (nmol·min^−1·mg^−1) ± SE” value in experiment [1] (Expt 1) stood at 37 ± 1 nmol/min/mg; in experiment [1] (Expt 2), 32 ± 1 nmol/min/mg; in experiment [1] (Expt 3), 35 ± 1 nmol/min/mg; in experiment [1] (Mean) it was 34 ± 1 nmol/min/mg. Further, the Michaelis constant (Km) in experiment [1] (Expt 1, read-out: Km (mM) ± SE) worked out at 3.4 ± 0.4 mM; in experiment [1] (Expt 2, read-out: Km (mM) ± SE), 3.8 ± 0.2 mM; in experiment [1] (Expt 3, read-out: Km (mM) ± SE), 3.5 ± 0.2 mM; in experiment [2] (Expt 1, read-out: Km (mM) ± SE), 2.4 ± 0.1 mM; in experiment [2] (Expt 2, read-out: Km (mM) ± SE), 1.7 ± 0.1 mM; in experiment [2] (Expt 3, read-out: Km (mM) ± SE) it was 1.8 ± 0.1 mM. The Km in experiment [2] (Mean, read-out: Km (mM) ± SE) is 1.9 ± 0.1 mM; in experiment [3] (arginase 2, range previously reported) it was 1000 to 7000 µM; in experiment [4], 1000 to 9000 µM. Moreover, the “Vmax (pmol·min^−1·mg^−1) ± SE” value worked out at 984 ± 8 pmol/min/mg in experiment [2] (Expt 1), 837 ± 12 pmol/min/mg in experiment [2] (Expt 2), 834 ± 5 pmol/min/mg in experiment [2] (Expt 3) and 883 ± 16 pmol/min/mg in experiment [2] (Mean).
Broadly, the Ki is the equilibrium dissociation constant of an inhibitor or competing ligand from its target. A word on the IC50: it is the concentration that inhibits the measured activity by half. Broadly, the inhibition is how much of the control response was suppressed. As to `NCCCC[C@H](N)C(=O)O` [LYS, lysine], the Ki in experiment [5] is 500 ± 30 µM; in experiment [3] (arginase 2 inhibition, ref Colleluori et al. 15), 7000 µM. The IC50 in experiment [5] (IC50 ( ± SE), arginase 2, ARG 2 mM) is 900 µM and 880 µM. The “inhibition model fitting the data” value in experiment [5] (arginase 2, poorly fit by uncompetitive, noncompetitive and mixed models) is reported as “competitive”; in experiment [6] (arginase 1, poorly fit by uncompetitive, noncompetitive and mixed models), “competitive”. The “inhibition of arginase 2 at physiological inhibitor concentrations” value in experiment [5] (physiological LYS and HOMOARG concentrations) is “no significant inhibition”. Further, the remaining activity at 1 µM turned out to be 92 ± 6% in experiment [5] (ARG 100 µM, inhibitor 1 µM); 88 ± 6% in experiment [5] (ARG 2 mM, inhibitor 1 µM); 88 ± 21% in experiment [6] (ARG 100 µM, inhibitor 1 µM); 108 ± 13% in experiment [6] (ARG 3 mM, inhibitor 1 µM). For the same compound, the remaining activity at 10 µM in experiment [5] (ARG 100 µM, inhibitor 10 µM) worked out at 97 ± 5%; in experiment [5] (ARG 2 mM, inhibitor 10 µM), 82 ± 6%; in experiment [6] (ARG 100 µM, inhibitor 10 µM), 89 ± 10%; in experiment [6] (ARG 3 mM, inhibitor 10 µM), 103 ± 10%. The remaining activity at 100 µM in experiment [5] (ARG 100 µM, inhibitor 100 µM) worked out at 78 ± 11%; in experiment [5] (ARG 2 mM, inhibitor 100 µM) it was 84 ± 5%; in experiment [6] (ARG 100 µM, inhibitor 100 µM), 105 ± 18%; in experiment [6] (ARG 3 mM, inhibitor 100 µM) it was 82 ± 4%. Further, the remaining activity at 1000 µM in experiment [5] (ARG 100 µM, inhibitor 1,000 µM) worked out at 56 ± 14%; in experiment [5] (ARG 2 mM, inhibitor 1,000 µM) it was 58 ± 1%; in experiment [6] (ARG 100 µM, inhibitor 1,000 µM), 56 ± 5%; in experiment [6] (ARG 3 mM, inhibitor 1,000 µM), 63 ± 8%. In addition, the remaining activity at 10000 µM in experiment [5] (ARG 100 µM) came out at 12 ± 4%; in experiment [5] (ARG 2 mM), 33 ± 4%; in experiment [6] (ARG 100 µM) it was 19 ± 1%; in experiment [6] (ARG 3 mM), 22 ± 1%. Further, the inhibition at 1000 µM in experiment [5] (setting [7]) came out at 44%; in experiment [5] (setting [8]), 42%; in experiment [6] (setting [9]), 44%; in experiment [6] (setting [10]) it was 39%. Moreover, the inhibition at 10000 µM in experiment [5] (setting [7]) worked out at 88%; in experiment [5] (setting [8]) it was 67%; in experiment [6] (setting [9]) it was 81%; in experiment [6] (setting [10]), 78%. In addition, in experiment [6] (LYS 100–1000 µM, HOMOARG 1–10 µM), the “inhibitory effect on arginase 1 activity at physiological inhibitor concentrations” value was “no significant inhibitory effects”.
On to `CN=C(NC)NCCC[C@H](N)C(=O)O` [SDMA, NG, N′G-dimethyl-L-arginine dihydrochloride], for which the “% of control activity at the corresponding [Inhibitor] ± SE” value (“% of control activity … [Inhibitor] ± SE” for short) came out at 90 ± 2% in experiment [5] (arginase 2, ARG 100 µM, inhibitor 0.1 µM); 96 ± 1% in experiment [5] (arginase 2, ARG 100 µM, inhibitor 1 µM); 95 ± 3% in experiment [5] (arginase 2, ARG 100 µM, inhibitor 10 µM); 90 ± 1% in experiment [5] (arginase 2, ARG 100 µM, inhibitor 100 µM); 89 ± 1% in experiment [5] (arginase 2, ARG 100 µM, inhibitor 1,000 µM); 96 ± 2% in experiment [5] (arginase 2, ARG 2 mM, inhibitor 0.1 µM). Moreover, the “% of control activity … [Inhibitor] ± SE” value in experiment [5] (arginase 2, ARG 2 mM, inhibitor 1 µM) was found to be 100 ± 3%; in experiment [5] (arginase 2, ARG 2 mM, inhibitor 10 µM), 107 ± 1%; in experiment [5] (arginase 2, ARG 2 mM, inhibitor 100 µM) it was 102 ± 1%; in experiment [5] (arginase 2, ARG 2 mM, inhibitor 1,000 µM) it was 96 ± 1%; in experiment [6] (arginase 1, ARG 100 µM, inhibitor 0.1 µM), 96 ± 3%; in experiment [6] (arginase 1, ARG 100 µM, inhibitor 1 µM), 113 ± 22%. Further, the “% of control activity … [Inhibitor] ± SE” value is given as 104 ± 4% in experiment [6] (arginase 1, ARG 100 µM, inhibitor 10 µM); 106 ± 17% in experiment [6] (arginase 1, ARG 100 µM, inhibitor 100 µM); 69 ± 10% in experiment [6] (arginase 1, ARG 100 µM, inhibitor 1,000 µM); 113 ± 16% in experiment [6] (arginase 1, ARG 3 mM, inhibitor 0.1 µM); 93 ± 5% in experiment [6] (arginase 1, ARG 3 mM, inhibitor 1 µM); 92 ± 2% in experiment [6] (arginase 1, ARG 3 mM, inhibitor 10 µM). In addition, the “% of control activity … [Inhibitor] ± SE” value in experiment [6] (arginase 1, ARG 3 mM, inhibitor 100 µM) is recorded as 84 ± 1%; in experiment [6] (arginase 1, ARG 3 mM, inhibitor 1,000 µM), 73 ± 5%. In experiment [5] (at the concentrations tested), the “arginase 2 inhibitor assessment in words” value is listed as “poor arginase inhibitors”. Moreover, the “arginase 1 inhibitor assessment in words” value in experiment [6] (at the concentrations tested, both ARG concentrations) is given as “poor arginase 1 inhibitors”.
For the compound `[Cl][Mn][Cl]` [manganese chloride], the “rate of ORN formation higher in absence of manganese supplementation” value in experiment [1] (absence vs 0.5 mM manganese chloride) is 20%.
